Assay results taken from publication PMC10814857, “Functional Classification and Interaction Selectivity Landscape of the Human SH3 Domain Superfamily” (Cells, 2024).
Peptide text beside a SMILES is read from it.

What was measured:
Assay in all cases: Fluorescence polarization SH3 domain-PRP binding
Conditions in all cases: FP, 0.2 µM fluorescein-labeled peptide, SH3 domain 0-200 µM, Tris/HCl pH 7.5, 25 °C, quadratic fit
[1] = target: T1, ITSN1-1 SH3 domain (aa 740-806) (Homo sapiens, UniProt Q15811)
T1 construct: 740-806; GST (N); made in house; host or cells: Escherichia coli CodonPlus, Rosetta, BL21(DE3)
T1 sequence (Q15811 740-806): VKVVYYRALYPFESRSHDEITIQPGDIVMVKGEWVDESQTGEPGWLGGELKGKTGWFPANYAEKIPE
Description: (§1) The interaction between fluorescein-labeled proline-rich peptides (0.2 µM) and increasing concentrations of SH3 domains (ranging from 0 to 200 µM) was measured in a buffer (containing 30 mM Tris/HCl (pH 7.5), 5 mM MgCl2, and 3 mM DTT at 25 °C) in a total volume of 200 µL using a Fluoromax 4 fluorimeter in polarization mode and a quartz glass fluorescence cuvette (Hellma Ultra-Micro Cuvette 105.250-QS, Thermo Fisher Scientific, Waltham, MA USA). Excitation was performed at 470 nm and emission was measured at 560 nm. Dissociation constants (Kd) were determined by fitting the concentration-dependent binding curve to a quadratic ligand binding equation.
(§2) Fluorescence polarization measurements were performed to determine the binding affinities of SH3 domain–PRP interaction pairs from the dot blot analysis. SH3 proteins were titrated at increasing concentrations against fluorescent PRPs, which were kept at a constant concentration of 0.2 µM. GRB2-2^W193K, which is defective in the binding of PRPs such as RP1, was used as a negative control as previously described. […] The resulting data (Figure S6) allowed the evaluation of equilibrium dissociation constants (Kd) for 45 interactions between the SH3 domains and the PRPs (Figure 2B; Table S6).
(§3) Figure S6. Interactions of the SH3 domains with fluorescent PRPs measured by fluorescence polarization.
(§4) Fluorescent peptides (0.2 µM) were titrated with increasing concentrations of the corresponding SH3 domains.
(§5) GRB2-2W193K, defective in the binding of PRPs such as RP1, was used as a negative control as previously described. The x-axis represents SH3 domain concentrations as GST fusion proteins in µM, while the y-axis represents fluorescence polarization. The equilibrium dissociation constants (Kd) for the respective measurements were determined by fitting the titration curves to a quadratic ligand-binding equation (solid lines). All Kd values are […]
(§6) Error bars are derived from the fitting errors.
(§7) (1 picture or pasted object on this page, not shown here)

[2] = target: T2, BIN1 SH3 domain (aa 520-593) (Homo sapiens, UniProt O00499)
T2 construct: 520-593; GST (N); made in house; host or cells: Escherichia coli CodonPlus, Rosetta, BL21(DE3)
T2 sequence (O00499 520-593): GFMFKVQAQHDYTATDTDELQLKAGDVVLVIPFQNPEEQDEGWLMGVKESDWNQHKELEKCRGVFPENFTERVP
Description: as §1, §2, §3, §4, §5, §6, §7

[3] = target: T3, ARHGAP12 SH3 domain (aa 12-74) (Homo sapiens, UniProt Q8IWW6)
T3 construct: 12-74; GST (N); made in house; host or cells: Escherichia coli CodonPlus, Rosetta, BL21(DE3)
T3 sequence (Q8IWW6 12-74): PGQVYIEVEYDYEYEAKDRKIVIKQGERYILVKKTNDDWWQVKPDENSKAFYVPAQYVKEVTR
Description: as §1, §2, §3, §4, §5, §6, §7

[4] = target: T4, DLG2 SH3 domain (aa 536-606) (Homo sapiens, UniProt Q15700)
T4 construct: 536-606; GST (N); made in house; host or cells: Escherichia coli CodonPlus, Rosetta, BL21(DE3)
T4 sequence (Q15700 536-606): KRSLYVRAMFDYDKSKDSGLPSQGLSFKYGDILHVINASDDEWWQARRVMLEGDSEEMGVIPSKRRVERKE
Description: as §1, §2, §3, §4, §5, §6, §7

[5] = target: T5, GRB2-2 SH3 domain (aa 158-215) (Homo sapiens, UniProt P62993)
T5 construct: 158-215; GST (N); made in house; host or cells: Escherichia coli CodonPlus, Rosetta, BL21(DE3)
Description: as §1, §2, §3, §4, §5, §6, §7

[6] = target: T6, ITSN1-2 SH3 domain (aa 913-971) (Homo sapiens, UniProt Q15811)
T6 construct: 913-971; GST (N); made in house; host or cells: Escherichia coli CodonPlus, Rosetta, BL21(DE3)
T6 sequence (Q15811 913-971): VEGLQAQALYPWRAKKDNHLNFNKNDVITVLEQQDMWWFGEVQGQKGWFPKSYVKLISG
Description: as §1, §2, §3, §4, §5, §6, §7

[7] = target: T7, GRB2-1 SH3 domain (aa 1-58) (Homo sapiens, UniProt P62993)
T7 construct: 1-58; GST (N); made in house; host or cells: Escherichia coli CodonPlus, Rosetta, BL21(DE3)
Description: as §1, §2, §3, §4, §5, §6, §7

[8] = target: T8, ITSN1-3 SH3 domain (aa 1002-1060) (Homo sapiens, UniProt Q15811)
T8 construct: 1002-1060; GST (N); made in house; host or cells: Escherichia coli CodonPlus, Rosetta, BL21(DE3)
T8 sequence (Q15811 1002-1060): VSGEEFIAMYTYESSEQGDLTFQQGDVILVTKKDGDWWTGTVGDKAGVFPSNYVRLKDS
Description: as §1, §2, §3, §4, §5, §6, §7

[9] = target: T9, ABL2 SH3 domain (aa 107-167) (Homo sapiens, UniProt P42684)
T9 construct: 107-167; GST (N); made in house; host or cells: Escherichia coli CodonPlus, Rosetta, BL21(DE3)
Description: as §1, §2, §3, §4, §5, §6, §7

[10] = target: T10, CRK-1 SH3 domain (aa 132-192) (Homo sapiens, UniProt P46108)
T10 construct: 132-192; GST (N); made in house; host or cells: Escherichia coli CodonPlus, Rosetta, BL21(DE3)
Description: as §1, §2, §3, §4, §5, §6, §7

[11] = target: T11, ABI1 SH3 domain (aa 446-505) (Homo sapiens, UniProt Q8IZP0)
T11 construct: 446-505; GST (N); made in house; host or cells: Escherichia coli CodonPlus, Rosetta, BL21(DE3)
Description: as §1, §2, §3, §4, §5, §6, §7

[12] = target: T12, ARHGEF30 (OBSCN) SH3 domain (aa 5600-5667) (Homo sapiens, UniProt Q5VST9)
T12 construct: 5600-5667; GST (N); made in house; host or cells: Escherichia coli CodonPlus, Rosetta, BL21(DE3)
T12 sequence (Q5VST9 5600-5667): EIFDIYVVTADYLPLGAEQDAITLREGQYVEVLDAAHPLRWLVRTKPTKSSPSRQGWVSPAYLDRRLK
Description: as §1, §2, §3, §4, §5, §6, §7

[13] = target: T13, SNX9 SH3 domain (aa 1-62) (Homo sapiens, UniProt Q9Y5X1)
T13 construct: 1-62; GST (N); made in house; host or cells: Escherichia coli CodonPlus, Rosetta, BL21(DE3)
Description: as §1, §2, §3, §4, §5, §6

T13 sequence (Q9Y5X1 1-62): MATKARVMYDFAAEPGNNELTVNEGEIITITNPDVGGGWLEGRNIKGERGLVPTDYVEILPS
T10 sequence (P46108 132-192): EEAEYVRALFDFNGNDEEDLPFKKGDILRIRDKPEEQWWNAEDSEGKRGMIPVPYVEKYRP
T9 sequence (P42684 107-167): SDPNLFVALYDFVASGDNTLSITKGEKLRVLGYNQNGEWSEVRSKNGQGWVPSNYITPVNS
T11 sequence (Q8IZP0 446-505): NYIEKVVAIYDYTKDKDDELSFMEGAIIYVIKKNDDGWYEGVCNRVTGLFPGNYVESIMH
T5 sequence (P62993 158-215): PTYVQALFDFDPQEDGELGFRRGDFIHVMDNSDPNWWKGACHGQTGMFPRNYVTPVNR
T7 sequence (P62993 1-58): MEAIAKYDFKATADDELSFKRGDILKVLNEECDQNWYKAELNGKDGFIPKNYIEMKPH

CC[C@H](C)[C@H](N)C(=O)N[C@@H](CO)C(=O)N[C@@H](CC(=O)O)C(=O)N1CCC[C@H]1C(=O)N1CCC[C@H]1C(=O)N[C@@H](CCC(=O)O)C(=O)N[C@@H](CO)C(=O)N1CCC[C@H]1C(=O)N1CCC[C@H]1C(=O)N[C@@H](CC(C)C)C(=O)N[C@@H](CC(C)C)C(=O)N1CCC[C@H]1C(=O)N1CCC[C@H]1C(=O)N[C@@H](CCCNC(=N)N)C(=O)N[C@@H](CCC(=O)O)C(=O)N1CCC[C@H]1C(=O)N[C@H](C(=O)N[C@@H](CCCNC(=N)N)C(=O)N[C@H](C(=O)N1CCC[C@H]1C(=O)N[C@@H](CC(=O)O)C(=O)N[C@H](C(=O)O)C(C)C)[C@@H](C)O)C(C)C [Peptide P5] (H-ISDPPESPPLLPPREPVRTPDV-OH)
Kd [1]: > 200 µM
Kd [2]: > 200 µM
Kd [3]: > 200 µM
Kd [4]: > 200 µM
Kd [5]: 35 µM
Kd [6]: > 200 µM
Kd [7]: 62 µM
Kd [8]: > 200 µM
Kd [9]: > 200 µM
Kd [10]: > 200 µM
Kd [11]: > 200 µM
Kd [12]: > 200 µM
Kd [13]: > 200 µM

CC(C)[C@H](NC(=O)[C@@H]1CCCN1C(=O)[C@@H]1CCCN1C(=O)[C@H](C)NC(=O)[C@H](CCC(=O)O)NC(=O)[C@H](CS)NC(=O)[C@@H](N)CCCNC(=N)N)C(=O)N1CCC[C@H]1C(=O)N1CCC[C@H]1C(=O)N[C@@H](CCCNC(=N)N)C(=O)N[C@@H](CCCNC(=N)N)C(=O)N[C@@H](CCC(=O)O)C(=O)N[C@@H](CCCNC(=N)N)C(=O)NCC(=O)O [RP2, reference compound] (H-RCEAPPVPPRRERG-OH)
Kd [1]: 11 µM
Kd [2]: 48 µM
Kd [3]: 15.5 µM
Kd [4]: > 200 µM
Kd [5]: 12.9 µM
Kd [6]: > 200 µM
Kd [7]: 20 µM
Kd [8]: > 200 µM
Kd [9]: > 200 µM
Kd [10]: > 200 µM
Kd [11]: > 200 µM
Kd [12]: > 200 µM
Kd [13]: > 200 µM

CC(C)C[C@H](NC(=O)[C@@H](NC(=O)[C@@H](N)C(C)C)[C@@H](C)O)C(=O)N1CCC[C@H]1C(=O)N[C@@H](Cc1c[nH]cn1)C(=O)NCC(=O)N1CCC[C@H]1C(=O)N[C@@H](CCCNC(=N)N)C(=O)N[C@@H](CO)C(=O)N[C@@H](C)C(=O)O [Peptide P2] (H-VTLPHGPRSA-OH)
Kd [1]: > 200 µM
Kd [2]: > 200 µM
Kd [3]: > 200 µM
Kd [4]: > 200 µM
Kd [5]: > 200 µM
Kd [6]: > 200 µM
Kd [7]: > 200 µM
Kd [8]: > 200 µM
Kd [9]: > 200 µM
Kd [10]: > 200 µM
Kd [11]: 60.7 µM
Kd [12]: > 200 µM
Kd [13]: > 200 µM

CC(C)[C@H](N)C(=O)N1CCC[C@H]1C(=O)N[C@H](C(=O)N1CCC[C@H]1C(=O)N1CCC[C@H]1C(=O)N1CCC[C@H]1C(=O)N[C@H](C(=O)N1CCC[C@H]1C(=O)N1CCC[C@H]1C(=O)N[C@@H](CCCNC(=N)N)C(=O)N[C@@H](CCCNC(=N)N)C(=O)N[C@@H](CCCNC(=N)N)C(=O)O)C(C)C)C(C)C [RP1, reference compound]
Kd [1]: 39 µM
Kd [2]: > 200 µM
Kd [3]: 16.7 µM
Kd [4]: > 200 µM
Kd [5]: 3.4 µM
Kd [6]: > 200 µM
Kd [7]: 11 µM
Kd [8]: > 200 µM
Kd [9]: 11 µM
Kd [10]: > 200 µM
Kd [11]: > 200 µM
Kd [12]: > 200 µM
Kd [13]: > 200 µM

CC[C@H](C)[C@H](NC(=O)[C@H](Cc1c[nH]cn1)NC(=O)[C@@H](N)CCC(N)=O)C(=O)N1CCC[C@H]1C(=O)N[C@@H](CCCCN)C(=O)N[C@@H](CC(C)C)C(=O)N1CCC[C@H]1C(=O)N1CCC[C@H]1C(=O)N[C@@H](CCCCN)C(=O)N[C@H](C(=O)N[C@@H](Cc1ccc(O)cc1)C(=O)O)[C@@H](C)O [Peptide P10] (H-QHIPKLPPKTY-OH; N-terminus and C-terminus assumed)
Kd [1]: > 200 µM
Kd [2]: > 200 µM
Kd [3]: > 200 µM
Kd [4]: > 200 µM
Kd [5]: > 200 µM
Kd [6]: > 200 µM
Kd [7]: > 200 µM
Kd [8]: > 200 µM
Kd [9]: > 200 µM
Kd [10]: > 200 µM
Kd [11]: > 200 µM
Kd [12]: > 200 µM
Kd [13]: > 200 µM

CC(C)C[C@H](NC(=O)[C@@H]1CCCN1C(=O)[C@@H](NC(=O)[C@H](CCCNC(=N)N)NC(=O)[C@@H]1CCCN1C(=O)[C@H](CO)NC(=O)[C@H](CC(N)=O)NC(=O)[C@@H]1CCCN1C(=O)[C@H](C)NC(=O)[C@@H](N)CO)[C@@H](C)O)C(=O)N[C@H](C(=O)N1CCC[C@H]1C(=O)N1CCC[C@H]1C(=O)N1CCC[C@H]1C(=O)N[C@@H](C)C(=O)N[C@@H](CO)C(=O)O)[C@@H](C)O [Peptide P1] (H-SAPNSPRTPLTPPPAS-OH)
Kd [1]: > 200 µM
Kd [2]: > 200 µM
Kd [3]: > 200 µM
Kd [4]: > 200 µM
Kd [5]: > 200 µM
Kd [6]: > 200 µM
Kd [7]: > 200 µM
Kd [8]: > 200 µM
Kd [9]: > 200 µM
Kd [10]: > 200 µM
Kd [11]: > 200 µM
Kd [12]: > 200 µM
Kd [13]: > 200 µM

CC[C@H](C)[C@H](N)C(=O)N[C@@H](C)C(=O)NCC(=O)N1CCC[C@H]1C(=O)N1CCC[C@H]1C(=O)N[C@H](C(=O)N1CCC[C@H]1C(=O)N1CCC[C@H]1C(=O)N[C@@H](CCCNC(=N)N)C(=O)N[C@@H](CCC(N)=O)C(=O)N[C@@H](CO)C(=O)O)C(C)C [Peptide P9] (H-IAGPPVPPRQS-OH)
Kd [1]: > 200 µM
Kd [2]: 47 µM
Kd [3]: > 200 µM
Kd [4]: > 200 µM
Kd [5]: > 200 µM
Kd [6]: > 200 µM
Kd [7]: > 200 µM
Kd [8]: > 200 µM
Kd [9]: > 200 µM
Kd [10]: > 200 µM
Kd [11]: > 200 µM
Kd [12]: > 200 µM
Kd [13]: > 200 µM
